The nature of data set [1]: Pharmacokinetic profile in rat. It counts as in vivo.
The nature of data set [2]: In vitro microsomal stability, dog. It counts as in vitro ADME. As to conditions: dog liver microsomes, 5 μM, 60 min.
In the next data set the target is T1, hACAT2 (Homo sapiens, UniProt O75908).
T1 sequence (O75908 1-522): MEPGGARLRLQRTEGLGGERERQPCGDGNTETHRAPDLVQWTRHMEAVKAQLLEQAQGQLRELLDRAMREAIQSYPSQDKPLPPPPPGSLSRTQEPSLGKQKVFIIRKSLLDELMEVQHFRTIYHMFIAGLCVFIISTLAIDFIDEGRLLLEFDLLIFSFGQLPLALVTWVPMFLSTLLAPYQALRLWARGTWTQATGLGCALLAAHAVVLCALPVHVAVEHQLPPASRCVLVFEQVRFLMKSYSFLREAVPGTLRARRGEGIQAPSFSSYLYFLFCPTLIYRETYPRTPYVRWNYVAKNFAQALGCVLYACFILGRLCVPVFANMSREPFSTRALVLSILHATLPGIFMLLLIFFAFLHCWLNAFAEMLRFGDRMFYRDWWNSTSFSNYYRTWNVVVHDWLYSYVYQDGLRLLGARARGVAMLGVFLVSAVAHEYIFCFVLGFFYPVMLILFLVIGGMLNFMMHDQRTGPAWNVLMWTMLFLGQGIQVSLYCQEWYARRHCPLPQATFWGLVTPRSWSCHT
The experiment in a line: Enzymatic assay hACAT2. It counts as biochemical. The source says:
ACATs have sequence homology to DGAT-1 and play essential roles in cholesterol homeostasis. 17b was not explored in the enzymatic assays due to its poor pharmacokinetic profile.

Data set [3] in a line: Pharmacokinetic profile in dog. The format is in vivo.
For another data set, the target named is CYP3A4 (Homo sapiens, UniProt P08684). The experiment in a line: CYP inhibition assay CYP3A4. It counts as in vitro ADME. As to conditions: fluorescence detection method; read-out: CYPs enzyme inhibition, IC50, CYP3A4.
Chain of CYP3A4 (P08684 whole entry): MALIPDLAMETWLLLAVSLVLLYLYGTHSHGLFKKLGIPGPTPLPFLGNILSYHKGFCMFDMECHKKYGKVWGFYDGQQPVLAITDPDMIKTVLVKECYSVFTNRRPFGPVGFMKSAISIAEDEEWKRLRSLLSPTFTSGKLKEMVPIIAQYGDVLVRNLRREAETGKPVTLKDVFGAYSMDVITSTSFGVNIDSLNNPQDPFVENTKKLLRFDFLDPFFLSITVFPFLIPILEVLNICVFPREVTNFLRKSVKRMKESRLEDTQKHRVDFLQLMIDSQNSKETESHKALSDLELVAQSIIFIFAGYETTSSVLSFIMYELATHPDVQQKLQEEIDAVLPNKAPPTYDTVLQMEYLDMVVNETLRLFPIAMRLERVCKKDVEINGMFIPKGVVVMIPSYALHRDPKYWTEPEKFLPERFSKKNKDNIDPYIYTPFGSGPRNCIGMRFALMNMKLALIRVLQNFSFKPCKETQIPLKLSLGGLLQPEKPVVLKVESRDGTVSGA
A short description of data set [4]: In vitro microsomal stability, human. It counts as in vitro ADME. As to conditions: human liver microsomes, 5 μM, 60 min. (In general: Microsomes from liver hold many membrane-bound enzymes, among them those of drug oxidation.)

Each structure is given as a SMILES string.

One compound from paper PMC6882492, “Synthesis and biological evaluation of novel thienopyrimidine derivatives as diacylglycerol acyltransferase 1 (DGAT-1) inhibitors” (Journal of Enzyme Inhibition and Medicinal Chemistry, 2019) can be followed below.

`O=C([O-])C[C@H]1CC[C@@H](c2csc3c(-c4ccc(NC(=O)Nc5cccc(Cl)c5)cc4)ncnc32)CC1.[Na+]` [Compound 17a, Sodium cis-2–(4–(4-(4-(3–(3-chlorophenyl)ureido)phenyl)thieno[3,2-d]pyrimidin-7-yl)cyclohexyl)acetate]: the Cl in data set [1] (3 mg/kg iv, 10 mg/kg po) was determined as 8.3 ± 3.3 mL/min/kg; in data set [3] (1 mg/kg iv, 3 mg/kg po) it was 6.7 ± 1.7 mL/min/kg. The half-life in data set [1] (in vivo, 10 mg/kg po) is 3 ± 0.4 h; in data set [3] (in vivo, 3 mg/kg po), 3.6 ± 0.7 h. The bioavailability stood at 30% in data set [1] (in vivo, 10 mg/kg po vs 3 mg/kg iv) and 53% in data set [3] (in vivo, 3 mg/kg po vs 1 mg/kg iv). Besides, the AUC was determined as 18600 ng·h/mL in data set [1] (in vivo, 10 mg/kg po, read-out: AUC 0 ∼ 24) and 8240 ± 2300 ng·h/mL in data set [3] (in vivo, 3 mg/kg po, read-out: AUC 0 ∼ 24). The “Microsomal stability, remaining percent” value in data set [2] worked out at 82%; in data set [4], 94%. Moreover, the IC50 against hACAT2 is over 10 µM; at CYP3A4, 16.2 µM.

Usually half-life stands for the time needed for the level to fall by half in the phase considered. The low end stands for fast loss, the high end for slow loss. The bioavailability is the share of a dose that reaches the circulation, judged against a reference dose that is usually intravenous. Lower therefore signals poor availability. In general, AUC refers to the area under the concentration-time curve, a measure of exposure. What is called IC50 is the concentration that gives 50% inhibition.
